In PubChem BioAssay (NCI):
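Results reflect a 48-hour exposure of cells in 96-well plates to compound at five concentrations. GI50 is the concentration that inhibits growth by half. TGI: concentration producing complete growth inhibition.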

Assays:
Test in all cases: DTP human tumour cell line panel, 48 h
[1] = test system: SK-MEL-28 melanoma
[2] = test system: MDA-MB-435
[3] = test system: HOP-92 NSCLC
[4] = test system: 786-0 renal
[5] = test system: NCI/ADR-RES ovarian
[6] = test system: OVCAR-5 ovarian
[7] = test system: SF-268 CNS
[8] = test system: BT-549 breast
[9] = test system: UACC-62 melanoma
[10] = test system: DU-145 prostate
[11] = test system: HL-60(TB) leukemia
[12] = test system: RPMI-8226 leukemia
[13] = test system: HCC-2998 colon
[14] = test system: NCI-H23 lung
[15] = test system: U251 CNS
[16] = test system: HCT-116 colon
[17] = test system: SR leukemia
[18] = test system: KM12 colon
[19] = test system: PC-3 prostate
[20] = test system: UO-31 renal
[21] = test system: HS 578T breast
[22] = test system: SK-MEL-5 melanoma
[23] = test system: TK-10 renal
[24] = test system: SK-MEL-2 melanoma
[25] = test system: SW-620 colon
[26] = test system: M14 melanoma
[27] = test system: CAKI-1 renal
[28] = test system: SNB-75 CNS
[29] = test system: CCRF-CEM leukemia
[30] = test system: SK-OV-3 ovarian
[31] = test system: A498 renal
[32] = test system: NCI-H522 lung
[33] = test system: EKVX NSCLC
[34] = test system: SF-295 CNS
[35] = test system: A549 NSCLC
[36] = test system: LOX IMVI melanoma
[37] = test system: NCI-H226 lung
[38] = test system: SN12C renal
[39] = test system: HCT-15 colon
[40] = test system: SF-539 CNS
[41] = test system: K-562 leukemia
[42] = test system: COLO 205 colon
[43] = test system: RXF 393 renal
[44] = test system: OVCAR-3 ovarian
[45] = test system: NCI-H460 lung
[46] = test system: MALME-3M melanoma
[47] = test system: MDA-MB-231 breast
[48] = test system: OVCAR-8 ovarian
[49] = test system: HOP-62 NSCLC
[50] = test system: HT29 colon
[51] = test system: MCF7 breast
[52] = test system: IGROV1 ovarian
[53] = test system: T-47D breast
[54] = test system: OVCAR-4 ovarian
[55] = test system: MOLT-4 leukemia
[56] = test system: UACC-257 melanoma
[57] = test system: ACHN renal

CCCCCCCCc1ccc(OCCOCC[N+](C)(C)CC)cc1 (tested in a mixture with another compound) was tested, and the GI50 [1] was 3.25 µM, the TGI [1] was 15.4 µM and the GI50 [2] was 2.91 µM. It also gave a TGI [2] of 11.2 µM, a GI50 [3] of 1.17 µM and a TGI [3] of 4.51 µM. It also gave a GI50 [4] of 14.2 µM, a TGI [4] of 28.8 µM and a GI50 [5] of over 100 µM. For the same compound, the TGI [5] was over 100 µM, the GI50 [6] was 7.5 µM and the TGI [6] was 20.9 µM. For the same compound, the GI50 [7] was 4.22 µM, the TGI [7] was 16.9 µM and the GI50 [8] was 3.03 µM. For the same compound, the TGI [8] was 9.8 µM, the GI50 [9] was 1.88 µM and the TGI [9] was 5.48 µM. It also gave a GI50 [10] of 8.09 µM, a TGI [10] of 22.8 µM and a GI50 [11] of 1.47 µM. For the same compound, the TGI [11] was 4.85 µM, the GI50 [12] was 2.03 µM and the TGI [12] was 6.82 µM. The GI50 [13] was 3.74 µM, the TGI [13] was 13.6 µM and the GI50 [14] was 3.42 µM. For the same compound, the TGI [14] was 15.8 µM, the GI50 [15] was 1.8 µM and the TGI [15] was 12.3 µM. For the same compound, the GI50 [16] was 3.84 µM, the TGI [16] was 14.8 µM and the GI50 [17] was 3 µM. The TGI [17] was 14.3 µM, the GI50 [18] was 3.72 µM and the TGI [18] was 13.8 µM. It also gave a GI50 [19] of 3.12 µM, a TGI [19] of 12.6 µM and a GI50 [20] of 17.5 µM. The TGI [20] was 45.4 µM, the GI50 [21] was 3.2 µM and the TGI [21] was 16.6 µM. The GI50 [22] was 1.45 µM, the TGI [22] was 3.06 µM and the GI50 [23] was 14.8 µM. The TGI [23] was 29.1 µM, the GI50 [24] was 2.56 µM and the TGI [24] was 8.53 µM. It also gave a GI50 [25] of 3.97 µM, a TGI [25] of 16.1 µM and a GI50 [26] of 4.07 µM. The TGI [26] was 17.2 µM, the GI50 [27] was 54.8 µM and the TGI [27] was over 100 µM. For the same compound, the GI50 [28] was 2.12 µM, the TGI [28] was 9 µM and the GI50 [29] was 3.2 µM. The TGI [29] was 15.9 µM, the GI50 [30] was 7.74 µM and the TGI [30] was 20.2 µM. For the same compound, the GI50 [31] was 9.16 µM, the TGI [31] was 22 µM and the GI50 [32] was 2.18 µM. The TGI [32] was 9.84 µM, the GI50 [33] was 4.6 µM and the TGI [33] was 18.7 µM. It also gave a GI50 [34] of 13 µM, a TGI [34] of 27 µM and a GI50 [35] of 9.99 µM. For the same compound, the TGI [35] was 23.1 µM, the GI50 [36] was 2.7 µM and the TGI [36] was 13.7 µM. It also gave a GI50 [37] of 4.31 µM, a TGI [37] of 19.2 µM and a GI50 [38] of 3.07 µM. The TGI [38] was 11.9 µM, the GI50 [39] was 24.8 µM and the TGI [39] was over 100 µM. The GI50 [40] was 3.97 µM, the TGI [40] was 15 µM and the GI50 [41] was 3.06 µM. For the same compound, the TGI [41] was 15.4 µM, the GI50 [42] was 1.59 µM and the TGI [42] was 3.21 µM. It also gave a GI50 [43] of 10.5 µM, a TGI [43] of 23.4 µM and a GI50 [44] of 2.79 µM. It also gave a TGI [44] of 12.5 µM, a GI50 [45] of 3.94 µM and a TGI [45] of 14.5 µM. For the same compound, the GI50 [46] was 1.93 µM, the TGI [46] was 6.44 µM and the GI50 [47] was 2.75 µM. The TGI [47] was 11.3 µM, the GI50 [48] was 3.81 µM and the TGI [48] was 15.4 µM. It also gave a GI50 [49] of 5 µM, a TGI [49] of 17.2 µM and a GI50 [50] of 3.1 µM. It also gave a TGI [50] of 13.5 µM, a GI50 [51] of 3.05 µM and a TGI [51] of 12.6 µM. The GI50 [52] was 3.74 µM, the TGI [52] was 14.7 µM and the GI50 [53] was 3.14 µM. It also gave a TGI [53] of 13.7 µM, a GI50 [54] of 1.66 µM and a TGI [54] of 10.8 µM. It also gave a GI50 [55] of 4.39 µM, a TGI [55] of 18.2 µM and a GI50 [56] of 2.34 µM. The TGI [56] was 6.8 µM, the GI50 [57] was 15.6 µM and the TGI [57] was 30.4 µM.
